According to the kinase profiling compilation of Christmann-Franck et al. (2016):

Tests used:
Test in all cases: KINOMEscan competition binding
Conditions in all cases: compound 10.0 µM
[1] = molecular target: ADCK3 (human) (UniProt Q8NI60)
[2] = molecular target: BRSK2 (human) (UniProt Q8IWQ3)
[3] = molecular target: CDK14 (human) (UniProt O94921)
[4] = molecular target: CDK15 (human) (UniProt Q96Q40)
[5] = molecular target: CDK16 (human) (UniProt Q00536)
[6] = molecular target: CDK18 (human) (UniProt Q07002)
[7] = molecular target: CIT (human) (UniProt O14578)
[8] = molecular target: CSF1R (human) (UniProt P07333)
[9] = molecular target: CSK (human) (UniProt P41240)
[10] = molecular target: CSNK1D (human) (UniProt P48730)
[11] = molecular target: EPHA5 (human) (UniProt P54756)
[12] = molecular target: MAK (human) (UniProt P20794)
[13] = molecular target: MAP3K4 (human) (UniProt Q9Y6R4)
[14] = molecular target: MAP3K6 (human) (UniProt O95382)
[15] = molecular target: MAP3K7 (human) (UniProt O43318)
[16] = molecular target: MAPK13 (human) (UniProt O15264)
[17] = molecular target: MAPK14 (human) (UniProt Q16539)
[18] = molecular target: MAPK7 (human) (UniProt Q13164)
[19] = molecular target: MYO3B (human) (UniProt Q8WXR4)
[20] = molecular target: PAK6 (human) (UniProt Q9NQU5)
[21] = molecular target: PDGFRB (human) (UniProt P09619)
[22] = molecular target: PI4KB (human) (UniProt Q9UBF8)
[23] = molecular target: PIK3CA (human) (UniProt P42336)
[24] = molecular target: PIK3CB (human) (UniProt P42338)
[25] = molecular target: PLK3 (human) (UniProt Q9H4B4)
[26] = molecular target: PTK2B (human) (UniProt Q14289)
[27] = molecular target: PTK6 (human) (UniProt Q13882)
[28] = molecular target: RAF1 (human) (UniProt P04049)
[29] = molecular target: RPS6KA1 KD2 (human) (UniProt Q15418)
[30] = molecular target: STK33 (human) (UniProt Q9BYT3)
[31] = molecular target: TAOK1 (human) (UniProt Q7L7X3)
[32] = molecular target: TNK2 (human) (UniProt Q07912)
[33] = molecular target: TNNI3K (human) (UniProt Q59H18)
[34] = molecular target: TXK (human) (UniProt P42681)
[35] = molecular target: TYRO3 (human) (UniProt Q06418)
[36] = molecular target: ULK1 (human) (UniProt O75385)
[37] = molecular target: CDKL1 (human) (UniProt Q00532)
[38] = molecular target: MAP2K7 (human) (UniProt O14733)
[39] = molecular target: STK32A (human) (UniProt Q8WU08)
[40] = molecular target: CSNK1A1 (human) (UniProt P48729)

Chain of CDK15 (human) (Q96Q40 whole entry, looked up): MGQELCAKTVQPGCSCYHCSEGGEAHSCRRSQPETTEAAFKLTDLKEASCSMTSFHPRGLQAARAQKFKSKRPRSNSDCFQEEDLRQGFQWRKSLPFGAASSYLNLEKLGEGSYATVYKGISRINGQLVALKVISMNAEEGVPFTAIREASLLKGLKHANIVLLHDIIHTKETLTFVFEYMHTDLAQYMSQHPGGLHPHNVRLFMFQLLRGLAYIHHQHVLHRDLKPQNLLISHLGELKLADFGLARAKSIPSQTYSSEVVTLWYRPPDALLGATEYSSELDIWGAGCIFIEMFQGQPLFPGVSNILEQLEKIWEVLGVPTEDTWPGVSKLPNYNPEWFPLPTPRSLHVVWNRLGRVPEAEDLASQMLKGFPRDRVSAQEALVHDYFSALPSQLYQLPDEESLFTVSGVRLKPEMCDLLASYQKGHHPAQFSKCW
Chain of MAP3K7 (human) (O43318 whole entry, looked up): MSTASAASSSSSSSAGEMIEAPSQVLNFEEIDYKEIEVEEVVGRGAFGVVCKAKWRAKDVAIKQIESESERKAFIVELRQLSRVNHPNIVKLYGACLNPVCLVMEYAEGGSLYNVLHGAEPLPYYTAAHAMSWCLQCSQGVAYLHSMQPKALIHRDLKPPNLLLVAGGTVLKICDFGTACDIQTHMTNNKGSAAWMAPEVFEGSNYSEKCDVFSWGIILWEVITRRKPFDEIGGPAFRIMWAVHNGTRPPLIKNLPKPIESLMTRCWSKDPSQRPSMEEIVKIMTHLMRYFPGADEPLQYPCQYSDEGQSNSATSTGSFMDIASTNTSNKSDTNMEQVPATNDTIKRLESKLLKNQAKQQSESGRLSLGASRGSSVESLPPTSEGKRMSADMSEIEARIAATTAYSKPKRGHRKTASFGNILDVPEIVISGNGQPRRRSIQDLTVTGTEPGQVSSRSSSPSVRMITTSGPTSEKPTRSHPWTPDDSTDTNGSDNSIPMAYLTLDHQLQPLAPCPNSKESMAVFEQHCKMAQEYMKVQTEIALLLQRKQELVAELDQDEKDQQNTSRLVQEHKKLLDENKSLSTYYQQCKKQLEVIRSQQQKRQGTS
Chain of CSF1R (human) (P07333 whole entry, looked up): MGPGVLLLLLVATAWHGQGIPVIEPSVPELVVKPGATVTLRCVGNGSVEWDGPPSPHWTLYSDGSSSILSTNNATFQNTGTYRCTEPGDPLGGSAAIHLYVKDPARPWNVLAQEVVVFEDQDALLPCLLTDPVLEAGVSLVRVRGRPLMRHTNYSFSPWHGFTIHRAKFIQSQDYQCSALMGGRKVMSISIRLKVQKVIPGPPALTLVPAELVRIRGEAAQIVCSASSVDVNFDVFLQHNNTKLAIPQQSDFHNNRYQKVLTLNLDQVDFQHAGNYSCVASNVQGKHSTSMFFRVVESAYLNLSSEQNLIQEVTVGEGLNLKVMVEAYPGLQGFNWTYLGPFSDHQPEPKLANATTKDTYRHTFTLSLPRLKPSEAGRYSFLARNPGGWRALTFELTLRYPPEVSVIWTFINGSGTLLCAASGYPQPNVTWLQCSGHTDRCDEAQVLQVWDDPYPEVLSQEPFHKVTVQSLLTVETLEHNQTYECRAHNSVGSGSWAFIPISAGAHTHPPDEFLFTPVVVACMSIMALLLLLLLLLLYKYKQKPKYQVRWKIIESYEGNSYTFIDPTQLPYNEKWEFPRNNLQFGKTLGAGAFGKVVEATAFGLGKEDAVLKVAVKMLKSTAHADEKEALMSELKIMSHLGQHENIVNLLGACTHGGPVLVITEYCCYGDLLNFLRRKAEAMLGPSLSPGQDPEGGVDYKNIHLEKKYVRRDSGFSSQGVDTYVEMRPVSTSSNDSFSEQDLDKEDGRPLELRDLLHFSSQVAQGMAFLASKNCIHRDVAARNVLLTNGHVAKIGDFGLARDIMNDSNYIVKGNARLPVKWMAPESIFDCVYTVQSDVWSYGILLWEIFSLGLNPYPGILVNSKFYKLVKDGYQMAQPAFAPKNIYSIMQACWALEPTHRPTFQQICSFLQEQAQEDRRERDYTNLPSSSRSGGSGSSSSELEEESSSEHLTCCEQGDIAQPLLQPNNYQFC
Chain of MAPK7 (human) (Q13164 whole entry, looked up): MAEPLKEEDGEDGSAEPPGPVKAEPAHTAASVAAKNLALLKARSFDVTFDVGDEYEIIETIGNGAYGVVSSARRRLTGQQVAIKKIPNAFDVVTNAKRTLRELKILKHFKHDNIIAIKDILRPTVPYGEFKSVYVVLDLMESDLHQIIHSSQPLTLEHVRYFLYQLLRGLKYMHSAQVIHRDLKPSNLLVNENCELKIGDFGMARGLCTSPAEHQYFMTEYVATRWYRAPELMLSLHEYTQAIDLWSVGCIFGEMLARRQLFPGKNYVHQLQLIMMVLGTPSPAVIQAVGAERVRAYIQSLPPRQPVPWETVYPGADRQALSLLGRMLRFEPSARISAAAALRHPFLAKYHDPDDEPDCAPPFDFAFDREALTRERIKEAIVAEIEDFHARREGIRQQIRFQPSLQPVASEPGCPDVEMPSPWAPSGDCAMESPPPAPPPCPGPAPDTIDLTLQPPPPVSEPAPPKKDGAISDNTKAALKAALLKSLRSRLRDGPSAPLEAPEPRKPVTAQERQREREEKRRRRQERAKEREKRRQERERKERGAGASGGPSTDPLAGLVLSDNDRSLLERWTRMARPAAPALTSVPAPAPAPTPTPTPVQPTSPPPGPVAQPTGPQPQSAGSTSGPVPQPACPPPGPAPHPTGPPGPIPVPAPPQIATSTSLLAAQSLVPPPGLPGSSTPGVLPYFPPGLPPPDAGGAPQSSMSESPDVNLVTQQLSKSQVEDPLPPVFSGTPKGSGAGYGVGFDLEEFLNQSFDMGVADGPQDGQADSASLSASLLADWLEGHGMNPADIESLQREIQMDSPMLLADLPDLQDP
Chain of PAK6 (human) (Q9NQU5 whole entry, looked up): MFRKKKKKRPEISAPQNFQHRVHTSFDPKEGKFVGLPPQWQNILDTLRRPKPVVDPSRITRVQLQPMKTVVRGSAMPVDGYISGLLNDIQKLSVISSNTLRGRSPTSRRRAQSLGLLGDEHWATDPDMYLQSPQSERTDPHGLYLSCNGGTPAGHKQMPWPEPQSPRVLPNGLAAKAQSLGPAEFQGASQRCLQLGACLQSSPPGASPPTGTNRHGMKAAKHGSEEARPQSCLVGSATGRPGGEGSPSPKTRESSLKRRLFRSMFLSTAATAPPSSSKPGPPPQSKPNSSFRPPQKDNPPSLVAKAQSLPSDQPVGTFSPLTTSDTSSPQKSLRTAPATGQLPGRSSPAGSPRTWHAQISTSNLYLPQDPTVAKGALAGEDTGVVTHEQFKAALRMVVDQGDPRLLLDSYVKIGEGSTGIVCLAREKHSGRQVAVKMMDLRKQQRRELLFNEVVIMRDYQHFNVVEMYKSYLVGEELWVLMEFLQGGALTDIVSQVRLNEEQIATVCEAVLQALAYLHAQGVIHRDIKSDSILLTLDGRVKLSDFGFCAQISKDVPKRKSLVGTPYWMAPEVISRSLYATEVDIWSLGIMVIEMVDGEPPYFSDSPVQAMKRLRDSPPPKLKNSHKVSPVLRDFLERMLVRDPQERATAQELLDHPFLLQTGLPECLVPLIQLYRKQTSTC
Chain of TNK2 (human) (Q07912 whole entry, looked up): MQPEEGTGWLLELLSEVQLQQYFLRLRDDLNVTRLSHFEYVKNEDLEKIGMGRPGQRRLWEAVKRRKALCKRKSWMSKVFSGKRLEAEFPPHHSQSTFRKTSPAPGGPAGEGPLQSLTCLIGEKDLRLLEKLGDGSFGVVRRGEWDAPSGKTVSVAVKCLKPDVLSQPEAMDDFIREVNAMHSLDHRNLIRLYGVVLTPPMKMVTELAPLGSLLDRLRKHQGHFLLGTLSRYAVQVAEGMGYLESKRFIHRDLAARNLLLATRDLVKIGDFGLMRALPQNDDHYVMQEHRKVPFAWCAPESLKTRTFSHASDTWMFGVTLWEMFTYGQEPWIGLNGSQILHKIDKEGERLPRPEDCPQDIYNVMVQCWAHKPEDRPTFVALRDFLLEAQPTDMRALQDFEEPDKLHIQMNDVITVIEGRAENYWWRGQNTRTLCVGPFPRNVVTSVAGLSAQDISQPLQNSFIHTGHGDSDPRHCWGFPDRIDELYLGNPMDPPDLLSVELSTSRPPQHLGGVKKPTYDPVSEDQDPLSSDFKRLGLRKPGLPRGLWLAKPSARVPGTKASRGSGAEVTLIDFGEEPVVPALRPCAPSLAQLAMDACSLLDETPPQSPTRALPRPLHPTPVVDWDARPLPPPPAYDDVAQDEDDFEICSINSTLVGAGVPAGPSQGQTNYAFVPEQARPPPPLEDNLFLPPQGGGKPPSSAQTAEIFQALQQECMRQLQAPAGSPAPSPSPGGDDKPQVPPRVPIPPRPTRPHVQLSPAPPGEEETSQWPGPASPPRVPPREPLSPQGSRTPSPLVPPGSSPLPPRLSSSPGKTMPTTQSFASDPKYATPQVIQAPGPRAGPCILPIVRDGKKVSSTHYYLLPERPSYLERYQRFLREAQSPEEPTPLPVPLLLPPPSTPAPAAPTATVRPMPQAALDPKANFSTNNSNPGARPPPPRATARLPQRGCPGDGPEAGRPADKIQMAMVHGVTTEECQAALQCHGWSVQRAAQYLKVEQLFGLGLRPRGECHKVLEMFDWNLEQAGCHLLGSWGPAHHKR
Chain of CDK16 (human) (Q00536 whole entry, looked up): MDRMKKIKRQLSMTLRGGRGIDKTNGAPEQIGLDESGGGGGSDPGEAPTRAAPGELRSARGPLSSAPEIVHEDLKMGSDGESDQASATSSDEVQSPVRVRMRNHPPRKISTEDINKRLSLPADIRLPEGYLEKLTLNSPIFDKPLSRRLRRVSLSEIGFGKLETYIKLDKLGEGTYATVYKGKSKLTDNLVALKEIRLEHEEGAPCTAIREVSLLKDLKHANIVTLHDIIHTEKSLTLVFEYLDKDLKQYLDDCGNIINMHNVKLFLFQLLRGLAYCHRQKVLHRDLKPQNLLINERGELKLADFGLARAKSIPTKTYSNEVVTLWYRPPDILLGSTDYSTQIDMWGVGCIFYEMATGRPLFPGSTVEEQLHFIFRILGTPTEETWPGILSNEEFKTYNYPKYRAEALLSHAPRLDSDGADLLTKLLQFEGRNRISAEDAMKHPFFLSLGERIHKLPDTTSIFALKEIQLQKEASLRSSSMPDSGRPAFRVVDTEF

Structure (SMILES) | kinase still bound, per cent of control [1] | kinase still bound, per cent of control [2] | kinase still bound, per cent of control [3] | kinase still bound, per cent of control [4] | kinase still bound, per cent of control [5] | kinase still bound, per cent of control [6] | kinase still bound, per cent of control [7] | kinase still bound, per cent of control [8] | kinase still bound, per cent of control [9] | kinase still bound, per cent of control [10] | kinase still bound, per cent of control [11] | kinase still bound, per cent of control [12] | kinase still bound, per cent of control [13] | kinase still bound, per cent of control [14] | kinase still bound, per cent of control [15] | kinase still bound, per cent of control [16] | kinase still bound, per cent of control [17] | kinase still bound, per cent of control [18] | kinase still bound, per cent of control [19] | kinase still bound, per cent of control [20] | further results
COc1cc(C(=O)NC2CCN(C)CC2)ccc1Nc1ncc2c(n1)N(C1CCCC1)CCC(=O)N2C(C)C | 100% | 0% | 100% | 100% | 100% | 100% | 100% | 100% | 100% | 100% | 100% | 100% | 100% | 100% | 100% | 100% | 100% | 100% | 100% | 100% | kinase still bound, per cent of control [21]: 100%; kinase still bound, per cent of control [22]: 100%; kinase still bound, per cent of control [23]: 100%; kinase still bound, per cent of control [24]: 100%; kinase still bound, per cent of control [25]: 100%; kinase still bound, per cent of control [26]: 100%; kinase still bound, per cent of control [27]: 100%; kinase still bound, per cent of control [28]: 100%; kinase still bound, per cent of control [29]: 100%; kinase still bound, per cent of control [30]: 32%; kinase still bound, per cent of control [31]: 100%; kinase still bound, per cent of control [32]: 100%; kinase still bound, per cent of control [33]: 100%; kinase still bound, per cent of control [34]: 100%; kinase still bound, per cent of control [35]: 100%; kinase still bound, per cent of control [36]: 100%
CCC(=O)N1CCN(c2ccc(-n3c(=O)ccc4cnc5ccc(-c6cnc7ccccc7c6)cc5c43)cc2C(F)(F)F)CC1 | 17% | 76% | 99% | 88% | 91% | 97% | 59% | 24% | 71% | 4.3% | 100% | 68% | 47% | 100% | 47% | 39% | 90% | 100% | 100% | 77% | kinase still bound, per cent of control [37]: 100%; kinase still bound, per cent of control [38]: 100%; kinase still bound, per cent of control [21]: 24%; kinase still bound, per cent of control [22]: 96%; kinase still bound, per cent of control [24]: 65%; kinase still bound, per cent of control [25]: 87%; kinase still bound, per cent of control [26]: 100%; kinase still bound, per cent of control [27]: 51%; kinase still bound, per cent of control [28]: 48%; kinase still bound, per cent of control [29]: 100%; kinase still bound, per cent of control [39]: 100%; kinase still bound, per cent of control [30]: 90%; kinase still bound, per cent of control [31]: 58%; kinase still bound, per cent of control [32]: 51%; kinase still bound, per cent of control [33]: 66%; kinase still bound, per cent of control [34]: 54%; kinase still bound, per cent of control [35]: 31%; kinase still bound, per cent of control [36]: 100%
CCCS(=O)(=O)Nc1ccc(F)c(C(=O)c2c[nH]c3ncc(-c4ccc(Cl)cc4)cc23)c1F | 100% | 100% | 100% | 96% | 96% | 100% | 30% | 8% | 7.4% | 97% | 98% | 100% | 63% | 100% | 69% | 100% | 70% | 69% | 64% | 74% | kinase still bound, per cent of control [37]: 100%; kinase still bound, per cent of control [40]: 90%; kinase still bound, per cent of control [21]: 0.15%; kinase still bound, per cent of control [22]: 0.7%; kinase still bound, per cent of control [23]: 94%; kinase still bound, per cent of control [24]: 100%; kinase still bound, per cent of control [25]: 93%; kinase still bound, per cent of control [26]: 100%; kinase still bound, per cent of control [27]: 0.75%; kinase still bound, per cent of control [28]: 0.95%; kinase still bound, per cent of control [29]: 59%; kinase still bound, per cent of control [39]: 100%; kinase still bound, per cent of control [30]: 94%; kinase still bound, per cent of control [31]: 72%; kinase still bound, per cent of control [32]: 6.9%; kinase still bound, per cent of control [33]: 65%; kinase still bound, per cent of control [34]: 59%; kinase still bound, per cent of control [35]: 100%; kinase still bound, per cent of control [36]: 93%
